Data from patent publication EP1027361B1, “6,11-BRIDGED ERYTHROMYCIN DERIVATIVES” (Abbott Laboratories, priority 1997, dated 1999).

What was measured:
Assay in all cases: in vitro antibacterial activity, agar dilution MIC
Assay type in all cases: cell-based
[1] = tested on: Enterococcus faecium ATCC 8043; conditions: organism code II, BHI agar, 35-37 °C, 20 to 24 hours
Protocol: (§1) Erythromycin A was used for this purpose.
(§2) After incubation, each plate was visually inspected.

[2] = tested on: Escherichia coli JUHL; conditions: organism code QQ, BHI agar, 35-37 °C, 20 to 24 hours
Protocol: as §1, §2

[3] = tested on: Escherichia coli SS; conditions: organism code RR, BHI agar, 35-37 °C, 20 to 24 hours
Protocol: as §1, §2

[4] = tested on: Haemophilis Influenzae DILL AMP R; conditions: organism code WW, BHI agar, 35-37 °C, 20 to 24 hours
Protocol: as §1, §2

[5] = tested on: Micrococcus luteus ATCC 4698; conditions: organism code PP, BHI agar, 35-37 °C, 20 to 24 hours
Protocol: as §1, §2

[6] = tested on: Micrococcus luteus ATCC 9341; conditions: organism code OO, BHI agar, 35-37 °C, 20 to 24 hours
Protocol: as §1, §2

[7] = tested on: Nocardia Asteroides ATCC9970; conditions: organism code VV, BHI agar, 35-37 °C, 20 to 24 hours
Protocol: as §1, §2

[8] = tested on: Staphylococcus aureus CMX 553; conditions: organism code FF, BHI agar, 35-37 °C, 20 to 24 hours
Protocol: as §1, §2

[9] = tested on: Staphylococcus aureus CMX 642A; conditions: organism code DD, BHI agar, 35-37 °C, 20 to 24 hours
Protocol: as §1, §2

[10] = tested on: Staphylococcus aureus NCTC10649M; conditions: organism code EE, BHI agar, 35-37 °C, 20 to 24 hours
Protocol: as §1, §2

[11] = tested on: Staphylococcus epidermidis 3519; conditions: organism code HH, BHI agar, 35-37 °C, 20 to 24 hours
Protocol: as §1, §2

[12] = tested on: Streptococcus Pheumoniae 5649; conditions: organism code ZZA, BHI agar, 35-37 °C, 20 to 24 hours
Protocol: as §1, §2

[13] = tested on: Streptococcus Pheumoniae GYR 1171; conditions: organism code YY, BHI agar, 35-37 °C, 20 to 24 hours
Protocol: as §1, §2

[14] = tested on: Staphylococcus aureus ATCC 6538P; set-up: unit not given here; conditions: organism code AA, BHI agar, 35-37 °C, 20 to 24 hours
Protocol: as §1, §2

[15] = tested on: Streptococcus Pheumoniae ATCC6303; set-up: unit not given here; conditions: organism code XX, BHI agar, 35-37 °C, 20 to 24 hours
Protocol: as §1, §2

[16] = tested on: Streptococcus agalactiae CMX 508; set-up: unit not given here; conditions: organism code KK, BHI agar, 35-37 °C, 20 to 24 hours
Protocol: as §1, §2

[17] = tested on: Streptococcus bovis A-5169; set-up: unit not given here; conditions: organism code JJ, BHI agar, 35-37 °C, 20 to 24 hours
Protocol: as §1, §2

[18] = tested on: Streptococcus pyogenes EES61; set-up: unit not given here; conditions: organism code LL, BHI agar, 35-37 °C, 20 to 24 hours
Protocol: as §1, §2

[19] = tested on: Candida albicans CCH 442; conditions: organism code TT, BHI agar, 35-37 °C, 20 to 24 hours
Protocol: (§3) Representative compounds of the present invention were assayed in vitro for antibacterial activity as follows: Twelve petri dishes containing successive aqueous dilutions of the test compound mixed with 10 mL of sterilized Brain Heart Infusion (BHI) agar (Difco 0418-01-5) were prepared. Each plate was inoculated with 1:100 (or 1:10 for slow-growing strains, such as Micrococcus and Streptococcus) dilutions of up to 32 different microorganisms, using a Steers replicator block. […] In addition, a control plate, using BHI agar containing no test compound, was prepared and incubated at the beginning and end of each test
(§4) An additional plate containing a compound having known susceptibility patterns for the organisms being tested and belonging to the same antibiotic class as the test compound was also prepared and incubated as a further control, as well as to provide test-to-test comparability.
(§5) After incubation, each plate was visually inspected. The minimum inhibitory concentration (MIC) was defined as the lowest concentration of drug yielding no growth, a slight haze, or sparsely isolated colonies on the inoculum spot as compared to the growth control.

[20] = tested on: Escherichia coli DC-2; conditions: organism code SS, BHI agar, 35-37 °C, 20 to 24 hours
Protocol: as §3, §4, §5

[21] = tested on: Staphylococcus aureus 1775; conditions: organism code GG, BHI agar, 35-37 °C, 20 to 24 hours
Protocol: as §3, §4, §5

[22] = tested on: Staphylococcus aureus A-5278; conditions: organism code CC, BHI agar, 35-37 °C, 20 to 24 hours
Protocol: as §3, §4, §5

[23] = tested on: Streptococcus Pheumoniae 5979; conditions: organism code ZZ, BHI agar, 35-37 °C, 20 to 24 hours
Protocol: as §3, §4, §5

[24] = tested on: Streptococcus pyogenes 930; conditions: organism code MM, BHI agar, 35-37 °C, 20 to 24 hours
Protocol: as §3, §4, §5

[25] = tested on: Streptococcus pyogenes PIU 2548; conditions: organism code NN, BHI agar, 35-37 °C, 20 to 24 hours
Protocol: as §3, §4, §5

[26] = tested on: Mycobacterium smegmatis ATCC 114; set-up: unit not given here; conditions: organism code UU, BHI agar, 35-37 °C, 20 to 24 hours
Protocol: as §3, §4, §5

[27] = tested on: Staphylococcus aureus A5177; set-up: unit not given here; conditions: organism code BB, BHI agar, 35-37 °C, 20 to 24 hours
Protocol: as §3, §4, §5

Row | SMILES | minimum inhibitory concentration (MIC) [1] | minimum inhibitory concentration (MIC) [2] | minimum inhibitory concentration (MIC) [3] | minimum inhibitory concentration (MIC) [4] | minimum inhibitory concentration (MIC) [5] | minimum inhibitory concentration (MIC) [6] | minimum inhibitory concentration (MIC) [7] | minimum inhibitory concentration (MIC) [8] | minimum inhibitory concentration (MIC) [9] | minimum inhibitory concentration (MIC) [10] | minimum inhibitory concentration (MIC) [11] | minimum inhibitory concentration (MIC) [12] | minimum inhibitory concentration (MIC) [13] | minimum inhibitory concentration (MIC) [14] | minimum inhibitory concentration (MIC) [15] | minimum inhibitory concentration (MIC) [16] | minimum inhibitory concentration (MIC) [17] | minimum inhibitory concentration (MIC) [18] | minimum inhibitory concentration (MIC) [19] | minimum inhibitory concentration (MIC) [20] | also measured
1 | CC[C@H]1OC(=O)[C@H](C)[C@@H](O[C@H]2C[C@@](C)(OC)[C@@H](OC(C)=O)[C@H](C)O2)[C@H](C)[C@@H](O[C@@H]2O[C@H](C)C[C@H](N(C)C)[C@H]2O)[C@@]2(C)C[C@@H](C)C(=O)[C@H](C)[C@H]3N(CCNCc4cccc(c4)C=CCO2)C(=O)O[C@]13C [Example 10, Compound of Formula (I), 2'-R^p is H, 4"-R^p is acetyl, m is 2, A is NH, B is-(CH2)q-, q is 1, D is 1,3-phenylene, E is-(CH2)r-CH=CH-, r is 0, n is 1] | 0.78 | >100 | 6.2 | 64 | 1.56 | 0.39 | 1.56 | 6.2 | 6.2 | 6.2 | 6.2 | 8 | 0.25 | 6.2 | 0.12 | 0.39 | 0.39 | 0.78 | >100 | >100 | minimum inhibitory concentration (MIC) [21]: 100; minimum inhibitory concentration (MIC) [22]: 100; minimum inhibitory concentration (MIC) [23]: 64; minimum inhibitory concentration (MIC) [24]: 25; minimum inhibitory concentration (MIC) [25]: 6.2; minimum inhibitory concentration (MIC) [26]: 0.39; minimum inhibitory concentration (MIC) [27]: 25
2 | CC[C@H]1OC(=O)[C@H](C)C(=O)[C@H](C)[C@@H](O[C@@H]2O[C@H](C)C[C@H](N(C)C)[C@H]2O)[C@@]2(C)C[C@@H](C)C(=O)[C@H](C)[C@H]3N(CCOCc4ccccc4C=CCO2)C(=O)O[C@]13C [Example 12, Compound of Formula (II), R^p is H, m is 2, A is -O-, B is-(CH2)q-, q is 1, D is 1,2-phenylene, E is-(CH2)r-CH=CH-, r is 0, n is 1] | 0.1 | >100 | 1.56 | 16 | 0.39 | 0.2 | 0.78 | 0.78 | 0.78 | 0.78 | 0.78 | 1 | 0.125 | 0.78 | 0.25 | 0.1 | 0.05 | 0.05 | >100 | >100 | minimum inhibitory concentration (MIC) [21]: >100; minimum inhibitory concentration (MIC) [22]: >100; minimum inhibitory concentration (MIC) [23]: 128; minimum inhibitory concentration (MIC) [24]: 50; minimum inhibitory concentration (MIC) [25]: 0.39; minimum inhibitory concentration (MIC) [26]: 0.78; minimum inhibitory concentration (MIC) [27]: 0.78
3 | CC[C@H]1OC(=O)[C@H](C)[C@@H](O[C@H]2C[C@@](C)(OC)[C@@H](O)[C@H](C)O2)[C@H](C)[C@@H](O[C@@H]2O[C@H](C)C[C@H](N(C)C)[C@H]2O)[C@@]2(C)C[C@@H](C)C(=O)[C@H](C)[C@H]3N(CCCCO2)C(=O)O[C@]13C [Example 15, Compound of Formula (I), R^p is H, m is 3, A is absent, B is absent, D is absent, E is absent, n is 1] | 0.1 | >100 | 3.1 | 32 | 0.39 | 0.05 | 0.1 | 0.39 | 0.39 | 0.78 | 0.39 | 16 | 0.03 | 0.39 | 0.03 | 0.05 | 0.05 | 0.1 | >100 | >100 | minimum inhibitory concentration (MIC) [21]: >100; minimum inhibitory concentration (MIC) [22]: >100; minimum inhibitory concentration (MIC) [23]: >128; minimum inhibitory concentration (MIC) [24]: >100; minimum inhibitory concentration (MIC) [25]: 6.2; minimum inhibitory concentration (MIC) [26]: 1.56; minimum inhibitory concentration (MIC) [27]: 3.1
4 | CC[C@H]1OC(=O)[C@H](C)C(=O)[C@H](C)[C@@H](O[C@@H]2O[C@H](C)C[C@H](N(C)C)[C@H]2O)[C@@]2(C)C[C@@H](C)C(=O)[C@H](C)[C@H]3N(CC=CCO2)C(=O)O[C@]13C [Example 16, Compound of Formula (II), R^p is H, m is 1, A is absent, B is absent, D is absent, E is-(CH2)r-CH=CH-, r is 0, n is 1] | 0.2 | >100 | 0.78 | 32 | 0.39 | 0.2 | 0.39 | 0.39 | 0.39 | 0.39 | 0.39 | 0.5 | 0.25 | 0.39 | 0.25 | 0.2 | 0.2 | 0.2 | >100 | >100 | minimum inhibitory concentration (MIC) [21]: >100; minimum inhibitory concentration (MIC) [22]: >100; minimum inhibitory concentration (MIC) [23]: >128; minimum inhibitory concentration (MIC) [24]: >100; minimum inhibitory concentration (MIC) [25]: 0.39; minimum inhibitory concentration (MIC) [26]: 6.2; minimum inhibitory concentration (MIC) [27]: 0.39
